According to patent publication US20260021152A1, “USE OF MALE FLOWER EXTRACT OF EUCOMMIA ULMOIDES OLIVER IN PREPARATION OF FOOD OR MEDICAMENT FOR RESISTING MUSCLE AGING” (ZHEJIANG UNIVERSITY, priority 2022, published 2026):

Tested on: mt-Keima HEK 293T cells
Test: In vitro activation of mitophagy in mt-Keima 293T cells
Assay type: cell-based, human
Settings: 10 μM, 6 hours
Protocol: The specific method was as follows:
293T cells were cultured and passaged in the normal way, and inoculated in a 24-well plate, with 0.5 mL inoculated in each well. The cell density was 5×10^4 cells/mL, and a total of 2.5×10^4 cells were inoculated. Before inoculation, the cells in the centrifuge tube were pipetted evenly to ensure that the cell density at the beginning and at the end was consistent. After standing for 5-10 minutes, the plate was gently placed in the incubator. After overnight incubation, the original complete medium was removed, and 0.3 mL of a complete medium solution containing 1.5×10^5 TU lentiviruses was added to each well. After incubation at 37° C. for 8 hours, 200 μL of the complete medium was added to each well. After 24 hours of transfection, the medium was replaced until the cell density reached 80-90%, and the cells were digested and passaged a T25 flask. […] The successfully transfected cells were screened using a complete medium containing 0.5 μg/mL of a puromycin hydrochloride solution, and maintained with 0.25 μg/mL of the solution.
The confocal dishes were inoculated with 1 mL per dish, with a cell density of 2×10^5 cells/mL. After standing for 5-10 minutes, the dishes were gently placed in the incubator. When the cells grew to 30-40%, the drug was administered. After treating mt-Keima cells with 10 μM different iridoid monomer ingredients from the male flowers of Eucommia ulmoides Oliver or 10 μM CCCP for 6 hours, the medium was replaced with a fresh complete medium, and then live-cell confocal observation was performed directly. Confocal parameters: the excitation wavelengths were 440 nm and 596 nm each, and the emission wavelength was 620 nm, observed by a 40× water immersion objective.

| Compound | mitophagy activation | comparison of the average fluorescence density ratio (same concentration) |
| --- | --- | --- |
| carbonyl cyanide ester-3-chlorophenylhydrazone [CCCP] | significantly induced the occurrence of mitophagy | – |
| COC(=O)C1=CO[C@@H](O[C@@H]2O[C@H](CO)[C@@H](O)[C@H](O)[C@H]2O)[C@@H]2C(CO)=CC[C@H]12 [geniposide] | have mitophagy-activating activity | – |
| OCC1=C[C@@H](O)[C@@H]2C=CO[C@@H](O[C@@H]3O[C@H](CO)[C@@H](O)[C@H](O)[C@H]3O)[C@H]12 [aucubin] | have mitophagy-activating activity | – |
| CC(=O)OCC1=C[C@@H]2OC(=O)C3=CO[C@@H](O[C@@H]4O[C@H](CO)[C@@H](O)[C@H](O)[C@H]4O)[C@H]1[C@@H]32 [asperuloside] | had mitophagy-activating activity | better than that of the other three monomer ingredients |
| O=C(O)C1=CO[C@@H](O[C@@H]2O[C@H](CO)[C@@H](O)[C@H](O)[C@H]2O)[C@@H]2C(CO)=CC[C@H]12 [geniposidic acid] | have mitophagy-activating activity | – |
